Data as given in patent US12138398B2, “Methods and devices for providing a stimulus to a subject to induce gamma oscillations” (Massachusetts Institute of Technology, priority 2015, dated 2024).

Columns and labels:
AD patients = conditions: AD subjects; cited from earlier work
CK-p25 Tg mice [1] = assay: Cortical (Hoechst) and neuronal (NeuN) layer thickness in CK-p25 Tg mice; type: in vivo, mouse; conditions: visual cortex; for thickness of V1-neuronal layer: NeuN
Description: A study was conducted to examine the effect of gamma exposure and/or administration in accordance with some embodiments on DNA damage and neuronal loss in the visual cortex of a subject. For the study, an inducible mouse model of p25 accumulation (i.e., a creatine kinase carboxyl-terminal fragment p25 Tg mouse (CK-p25 Tg mouse)) was used.
A study was conducted to compare groups of mice under different treatment regimens. FIG. 84 is a diagram of the groups including CK-control mice 8400, untreated CK-p25 Tg mice 8402, CK-p25 Tg mice treated with memantine (10 mg/kg daily) 8404, CK-p25 Tg mice exposed to the 40-Hz light flicker (one hour daily for 6 weeks) in accordance with some embodiments 8406, and CK-p25 Tg mice treated with memantine and also exposed to the 40-Hz light flicker 8408. Memantine is a medication used with limited success to treat severe AD by blocking NMDA receptors, thereby acting on the glutamatergic system.
Cortical layer loss was gauged using nuclear staining with Hoechst labels (i.e., blue fluorescent dyes used to stain DNA). Neuronal layer loss was gauged using NeuN, a neuronal nuclear antigen that is commonly used as a biomarker for neurons. FIG. 89 is a bar graph depicting average thickness of the V1-cortical layer in each group, and FIG. 90 is a bar graph depicting average thickness of the V1-NeuN-positive cell layer in each group.

CK-p25 Tg mice [2] = assay: as above; type: in vivo, mouse; conditions: for thickness of neuronal layer of the insular cortex / thickness of SS1-neuronal layer: NeuN; for thickness of SS1-neuronal layer / thickness of SS1-cortical layer: somatosensory cortex
CK-p25 Tg mice [3] = assay: NeuN-positive cells (neuronal loss) in CK-p25 Tg mice; type: in vivo, mouse
Description: A study was conducted to examine the effect of gamma exposure and/or administration in accordance with some embodiments on DNA damage and neuronal loss in the visual cortex of a subject. For the study, an inducible mouse model of p25 accumulation (i.e., a creatine kinase carboxyl-terminal fragment p25 Tg mouse (CK-p25 Tg mouse)) was used. […] A study was conducted to compare groups of mice under different treatment regimens. FIG. 84 is a diagram of the groups including CK-control mice 8400, untreated CK-p25 Tg mice 8402, CK-p25 Tg mice treated with memantine (10 mg/kg daily) 8404, CK-p25 Tg mice exposed to the 40-Hz light flicker (one hour daily for 6 weeks) in accordance with some embodiments 8406, and CK-p25 Tg mice treated with memantine and also exposed to the 40-Hz light flicker 8408. Memantine is a medication used with limited success to treat severe AD by blocking NMDA receptors, thereby acting on the glutamatergic system. FIG. 98 is a bar graph comparing the amount of NeuN-positive cells as a percentage of the NeuN-positive cells in CK-control mice for the CK-control mice, untreated CK-p25 Tg mice, CK-p25 Tg mice treated with memantine, CK-p25 Tg mice exposed to the 40-Hz light flicker in accordance with some embodiments, and CK-p25 Tg mice treated with both memantine and the 40-Hz light flicker. Thus, the percentage of the CK-control mice NeuN-positive cells are 100% in the CK-control mice, but only about 80% in untreated CK-p25 Tg mice, corroborating neuronal loss in the CK-p25 Tg mouse model. […] Thus, FIG. 98 illustrates how 40-Hz visual flicker treatment in accordance with some embodiments can preserve neurons in the visual cortex.

CK-p25 Tg mice [4] = assay: γH2AX-positive cells (DNA damage) in CK-p25 Tg mice; type: in vivo, mouse
Description: A study was conducted to examine the effect of gamma exposure and/or administration in accordance with some embodiments on DNA damage and neuronal loss in the visual cortex of a subject. For the study, an inducible mouse model of p25 accumulation (i.e., a creatine kinase carboxyl-terminal fragment p25 Tg mouse (CK-p25 Tg mouse)) was used. […] A study was conducted to compare groups of mice under different treatment regimens. FIG. 84 is a diagram of the groups including CK-control mice 8400, untreated CK-p25 Tg mice 8402, CK-p25 Tg mice treated with memantine (10 mg/kg daily) 8404, CK-p25 Tg mice exposed to the 40-Hz light flicker (one hour daily for 6 weeks) in accordance with some embodiments 8406, and CK-p25 Tg mice treated with memantine and also exposed to the 40-Hz light flicker 8408. Memantine is a medication used with limited success to treat severe AD by blocking NMDA receptors, thereby acting on the glutamatergic system. DNA double strand breaks (DSB) are one example of DNA damage in eukaryotic cells, causing genomic instability, leading to tumorigenesis and possibly accelerated aging. Phosphorylated histone H2AX (γH2AX) was used as a biomarker of cellular response to DSB. FIG. 99 is bar graph comparing the amount of γH2AX-positive cells in CK-control mice, untreated CK-p25 Tg mice, CK-p25 Tg mice treated with memantine, CK-p25 Tg mice exposed to the 40-Hz light flicker in accordance with some embodiments, and CK-p25 Tg mice treated with both memantine and the 40-Hz light flicker. Cells positive for γH2AX were almost non-existent in CK-control mice, but very high in untreated CK-p25 Tg mice, indicating high amounts of DSB and other DNA damage. Treatment with memantine reduced the amount of γH2AX-positive cells in CK-p25 Tg mice compared to the untreated group. […] Thus, FIG. 99 illustrates how 40-Hz visual flicker treatment in accordance with some embodiments can reduce DNA damage in the visual cortex.

[5] = memantine + 40-Hz light flicker
[6] = memantine alone, compared to untreated CK-p25 Tg

In the case of `CC12CC3CC(C)(C1)CC(N)(C3)C2` [memantine], the “clinical outcome on cognition” value (AD patients) is given as “only mild cognitive benefits”, the thickness of V1-neuronal layer (CK-p25 Tg mice [1]; [5]) is given as 691 ± 20 µm and the thickness of V1-neuronal layer (CK-p25 Tg mice [1]; memantine alone) is given as 660 ± 7 µm. It also gave a thickness of V1-cortical layer (CK-p25 Tg mice [1]; [5]) of 821 ± 22 µm, a thickness of V1-cortical layer (CK-p25 Tg mice [1]; memantine alone) of 788 ± 9 µm and a thickness of neuronal layer of the insular cortex (CK-p25 Tg mice [2]; [5]) of 848 ± 15 µm. For the same compound, the thickness of neuronal layer of the insular cortex (CK-p25 Tg mice [2]; memantine alone) was 850 ± 18 µm, the thickness of cortical layer of the insular cortex (CK-p25 Tg mice [2]; [5]) was 965 ± 16 µm and the thickness of cortical layer of the insular cortex (CK-p25 Tg mice [2]; memantine alone) was 983 ± 12 µm. The thickness of SS1-neuronal layer (CK-p25 Tg mice [2]; [5]) was 650 ± 11 µm, the thickness of SS1-neuronal layer (CK-p25 Tg mice [2]; memantine alone) was 629 ± 9 µm and the thickness of SS1-cortical layer (CK-p25 Tg mice [2]; [5]) was 778 ± 13 µm. The thickness of SS1-cortical layer (CK-p25 Tg mice [2]; memantine alone) was 756 ± 11 µm, the “neuronal loss (NeuN-positive cells) in hippocampus” value (CK-p25 Tg mice [3]; [5]) was “prevented some neuronal loss” and the “neuronal loss (NeuN-positive cells) in insular cortex” value (CK-p25 Tg mice [3]; [5]) was “prevented the least neuronal loss”. For the same compound, the “neuronal loss (NeuN-positive cells) in somatosensory cortex” value (CK-p25 Tg mice [3]; [5]) was “prevented most neuronal loss”, the “neuronal loss (NeuN-positive cells) in visual cortex” value (CK-p25 Tg mice [3]; [5]) was “failed to prevent as much neuronal loss” and the “neuronal loss (NeuN-positive cells) in hippocampus” value (CK-p25 Tg mice [3]; [6]) was “prevented some neuronal loss”. The “neuronal loss (NeuN-positive cells) in insular cortex” value (CK-p25 Tg mice [3]; [6]) was “prevented some neuronal loss”, the “neuronal loss (NeuN-positive cells) in somatosensory cortex” value (CK-p25 Tg mice [3]; [6]) was “failed to prevent any neuronal loss” and the “neuronal loss (NeuN-positive cells) in visual cortex” value (CK-p25 Tg mice [3]; [6]) was “prevented some neuronal loss”. The “number of γH2AX-positive cells in hippocampus” value (CK-p25 Tg mice [4]; [5]) was “significantly increased”, the “number of γH2AX-positive cells in insular cortex” value (CK-p25 Tg mice [4]; [5]) was “significantly increased” and the “number of γH2AX-positive cells in somatosensory cortex” value (CK-p25 Tg mice [4]; [5]) was “significantly increased”. The “number of γH2AX-positive cells in visual cortex” value (CK-p25 Tg mice [4]; [5]) was “significantly increased”, the “amount of γH2AX-positive cells in hippocampus” value (CK-p25 Tg mice [4]; [6]) was “reduced” and the “amount of γH2AX-positive cells in insular cortex” value (CK-p25 Tg mice [4]; [6]) was “reduced”. The “amount of γH2AX-positive cells in somatosensory cortex” value (CK-p25 Tg mice [4]; [6]) was “reduced” and the “amount of γH2AX-positive cells in visual cortex” value (CK-p25 Tg mice [4]; [6]) was “reduced”.
